The values below come from DBAASP.

What all share (experiment): ≥ marks a high value that may be exact or a test limit, other limits are often not marked, values filed in µg/mL are converted to µM
The subject of experiment [1] is Bacillus subtilis IFO 3336.
Experiment [2] concerns Escherichia coli IFO 3301.
Experiment [3] deals with Streptococcus salivarius K12.
For experiment [4], the system named is Streptococcus sanguinis ATCC 10556.
The subject of experiment [5] is Streptococcus mutans UA159.
For experiment [6], the system named is Streptococcus sanguinis NY101.
Experiment [7] has as its system Streptococcus gordonii ATCC 10558.
Experiment [8] concerns Streptococcus gordonii DL1.
For experiment [9], the system named is Streptococcus mutans ATCC 25175.
Experiment [10] relates to Streptococcus mutans UA140.
Experiment [11] deals with Streptococcus mutans ATCC 104495.
Experiment [12] has as its system Streptococcus mutans comD.
In the next experiment the test system is Streptococcus mutans T8.

Values after ≈ are worked out from the molar mass of the structure shown. A value given as a limit tells only on which side of the number the result lay.

A word on the MIC: it is the lowest concentration that inhibits growth of the organism. Low readings indicate inhibition by little substance, high ones a need for much substance. `NC(N)=NCCC[C@H](NC(=O)[C@H](Cc1cnc[nH]1)NC(=O)[C@H](CCCN=C(N)N)NC(=O)[C@H](Cc1cnc[nH]1)NC(=O)[C@H](CCCN=C(N)N)NC(=O)[C@H](Cc1cnc[nH]1)NC(=O)[C@H](CCCN=C(N)N)NC(=O)[C@H](Cc1cnc[nH]1)NC(=O)[C@H](CCCN=C(N)N)NC(=O)[C@@H](N)Cc1cnc[nH]1)C(=O)O` [HRHRHRHRHR]: the MIC in experiment [1] and in experiment [2] was 6.74 µM (≈ 10 µg/mL) each time.

Turning to `CC[C@H](C)[C@H](NC(=O)CNC(=O)[C@H](CCCCN)NC(=O)[C@H](CCCN=C(N)N)NC(=O)[C@@H](NC(=O)[C@@H](NC(=O)[C@H](CCCN=C(N)N)NC(=O)[C@H](CC(C)C)NC(=O)[C@H](CC(N)=O)NC(=O)[C@@H](N)CCCCN)[C@@H](C)CC)[C@@H](C)CC)C(=O)N[C@@H](Cc1cnc[nH]1)C(=O)N[C@H](C(=O)N[C@H](C(=O)N[C@@H](CCCCN)C(=O)N[C@@H](CCCCN)C(=O)N[C@@H](Cc1ccc(O)cc1)C(N)=O)[C@@H](C)CC)[C@@H](C)CC` [KNLRIIRKGIHIIKKY], the MIC is 16.7 µM (≈ 33.3 µg/mL) in experiment [3]; at least 50 µM in [4]; 12.1 µM (≈ 24.1 µg/mL) in experiment [5]; at least 33.6 µM in [6]; at least 50 µM in experiment [7]; at least 41.3 µM in experiment [8]. Moreover, the minimum inhibitory concentration (MIC) in experiment [9] is 14.8 µM (≈ 29.5 µg/mL); in [10] it was at least 33.3 µM; in experiment [11], at least 33.3 µM; in experiment [12], 15.3 µM (≈ 30.5 µg/mL); with Streptococcus mutans T8, 14.2 µM (≈ 28.3 µg/mL).
